This note sets out measurements from US9777034B2, “Modular synthesis of amphiphilic Janus glycodendrimers and their self-assembly into glycodendrimersomes” (The Trustees of The University of Pennsylvania, priority 2013, dated 2017).

Entries after “also recorded” stand apart in the source; their conditions may differ.

For data set [1], the system named is Viscum album L. agglutinin (VAA).
Data set [2] in a line: Cryo-TEM of assemblies formed in water. The class given is physicochemical. The following applies: injection into water, cryo-TEM.
A short description of data set [3]: Self-assembly by injection of THF or ethanol solution into water or buffer, analysed by DLS (size, polydispersity, stability in time). The settings on record: PBS and HEPES buffers.
Description: The resulting assemblies were first analyzed by dynamic light scattering (DLS) for size, polydispersity (PDI), and stability in time. Assemblies stable in time were subsequently analyzed by cryogenic-transmission electron microscopy (cryo-TEM) to determine their structure.
Dynamic light scattering (DLS) was performed with a Malvern Instruments particle sizer (Zetasizer® Nano S, Malvern Instruments, UK) equipped with 4 mW He—Ne laser 633 nm and avalanche photodiode positioned at 175° to the beam and temperature controlled cuvette holder. Instrument parameters were determined automatically along with measurement times. Experiments were performed in triplicate. The Janus-dendrimer (1 mg) dissolved in 100 μL of THF was injected into 2 mL of ultrapure water or buffer followed by 5 seconds of vortex mixing. DLS experiments were measured at 25° C. Different final concentration of dendrimersomes in water was prepared from varying the starting concentration of THF solution with the same injection volume (100 μL) into constant 2.0 mL of ultrapure water or buffer.
For another data set, the target named is T1, PA-IL (Pseudomonas aeruginosa, UniProt Q05097).
T1 construct: purchased Sigma-Aldrich
T1 sequence (Q05097 whole entry): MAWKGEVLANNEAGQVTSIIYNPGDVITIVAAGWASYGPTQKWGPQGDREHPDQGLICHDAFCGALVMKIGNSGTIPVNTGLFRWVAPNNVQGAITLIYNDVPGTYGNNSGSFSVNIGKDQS
Description: Agglutination of glycodendrimersomes with PA-IL. In kind it is binding. The following applies: 10 mM HEPES, 1.0 mM MnCl2 and CaCl2.

Data set [4] is described as follows: Micropipette aspiration of giant glycodendrimersomes. The following applies: for behaviour in micropipette aspiration: giant vesicles prepared by hydration.
The next data set concerns the target T2, galectin-3 (Gal-3) (Homo sapiens, UniProt P17931).
T2 construct: made in house
Description: Agglutination of glycodendrimersomes with Gal-3. In kind it is binding. The following applies: [52bd]=1.0 mg/mL, [Gal-3]=0-4.0 mg/mL, 10 mM HEPES.

In the next data set the target is T3, galectin-4 (Gal-4) (Homo sapiens, UniProt P56470).
T3 construct: made in house
T3 sequence (P56470 1-323): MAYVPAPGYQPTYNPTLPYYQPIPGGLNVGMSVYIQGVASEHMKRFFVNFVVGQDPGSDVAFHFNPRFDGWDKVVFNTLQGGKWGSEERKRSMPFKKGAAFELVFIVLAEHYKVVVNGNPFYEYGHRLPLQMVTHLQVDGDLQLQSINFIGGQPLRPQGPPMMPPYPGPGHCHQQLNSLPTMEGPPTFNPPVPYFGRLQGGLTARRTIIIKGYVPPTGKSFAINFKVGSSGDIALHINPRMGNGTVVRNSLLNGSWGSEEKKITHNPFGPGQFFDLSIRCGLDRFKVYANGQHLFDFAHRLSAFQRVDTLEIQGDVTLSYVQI
Description: Agglutination of glycodendrimersomes with Gal-4. In kind it is binding. The following applies: [52bd]=1.0 mg/mL, [Gal-4]=0-4.0 mg/mL, 10 mM HEPES.

T2 sequence (P17931 whole entry): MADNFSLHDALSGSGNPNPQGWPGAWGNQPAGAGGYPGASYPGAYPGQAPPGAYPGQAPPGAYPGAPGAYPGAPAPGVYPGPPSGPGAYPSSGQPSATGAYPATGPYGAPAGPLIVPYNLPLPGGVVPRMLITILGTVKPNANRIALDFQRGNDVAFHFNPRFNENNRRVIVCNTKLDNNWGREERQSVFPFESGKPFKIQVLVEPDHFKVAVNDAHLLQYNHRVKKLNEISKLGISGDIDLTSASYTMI

“(3,5)12G1-PE-TRZi-3EOGal2 [Compound 51ba]”: the “agglutination with VAA” value in data set [1] is listed as “agglutinated”. Moreover, the “structure of assemblies formed in water” value in data set [2] is “soft vesicles”. For the same substance, in data set [3], the “stability of glycodendrimersomes in buffer” value (from here on “stability”) is given as “stable in buffer”. Moreover, on PA-IL, the “agglutination with PA-IL” value is given as “agglutination; also recorded: agglutinated”.

As to “(3,5)12G1-PE-TRZi-3EOMan2 [Compound 51bb]”, in data set [4], the “behaviour in micropipette aspiration” value was “fluid unilamellar membrane”. Further, in data set [2], the “structure of assemblies formed in water” value is given as “soft vesicles”. For the same substance, the “agglutination with Con A, dependence on glycodendrimersome diameter” value with concanavalin A (Con A) is given as “smallest glycodendrimersome provides the fastest agglutination”. Further, the “stability” value in data set [3] was “stable in buffer”.

As for “(3,4,5)12G1-PE-spacer-TRZ-(4EO-lactose)2 [Compound 52dd]”, the “elastic modulus of membrane” value in data set [4] (average of 11 (52dd) or 13 (51bc) vesicles) worked out at 49.6±15 dyne/cm. The critical area strain entry in data set [4] (giant vesicles) was “greater than 20%”. In addition, in data set [4], the “behaviour in micropipette aspiration” value is “fluid unilamellar membrane; also recorded: display hysteresis”. Further, the “structure of assemblies formed in water” value in data set [2] was “glycodendrimersomes”. Moreover, in data set [3], the “stability” value is on record as “stable in buffer”.

For “(3,5)12G1-PE-TRZ-4EOLac2 [Compound 52bd]”, the “agglutination with Gal-3” value on galectin-3 (Gal-3) is “agglutination”. Besides, in data set [1], the “agglutination with VAA” value is given as “agglutination effect can be clearly visualized”. Further, the “structure of assemblies formed in water” value in data set [2] is recorded as “glycodendrimersomes”. Moreover, at galectin-4 (Gal-4), the “agglutination with Gal-4” value is reported as “agglutination”. The “stability” value in data set [3] is reported as “stable in buffer”.
